Where a name gives a salt, the structure may show the parent alone.
Key:
[1] = system: A-427 human lung carcinoma; experiment: CellTiter-Glo cancer cell line proliferation assay, A-427; format: cell-based; settings: Homo sapiens, A-427, 24 hr, read-out: A427 at 24 hrs, IC50
Method in brief: (§1)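 Cells plated at 4,000/well, grown 24 h at 37 °C/5% CO2, then exposed to compound concentration series (0.5% DMSO final) for 24 h. Viability read by CellTiter-Glo luminescence; IC50 values calculated.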

[2] = system: AsPC-1 human pancreatic adenocarcinoma; experiment: CellTiter-Glo cancer cell line proliferation assay, AsPC-1; format: cell-based; settings: Homo sapiens, ASPC1, 24 hr
Method in brief: as §1

[3] = target: T1, KRAS(G12D)/SOS1 (Homo sapiens, UniProt P01116, G12D); experiment: KRAS(G12D)/SOS1 homogeneous time-resolved fluorescence (HTRF) assay; format: binding; settings: absence of GTP, 4° C. for 3 hr
T1 construct: purchased Cisbio 63ADK000CB16PEG
Method: The test compound was mixed and incubated with reaction components, incubated in a sealed plate at 4° C. for 3 hr and fluorescence was measured using a PerkinElmer Envision plate reader.

[4] = target: BA/F3-KRAS(G12D) murine pro-B cell line stably expressing KRAS(G12D) (Homo sapiens, UniProt P01116, G12D, cells depend on it); experiment: CellTiter-Glo cancer cell line proliferation assay, BA/F3-KRAS(G12D); format: cell-based; settings: 24 hr, read-out: BAF3 at 24 hrs, IC50
Method: The following cancer cell lines were employed: AsPC-1 human pancreatic adenocarcinoma (ATCC, #CRL-1682); A-427 human lung carcinoma (ATCC, #HTB-53); BA/F3-KRAS(G12D) murine pro-B cell line stably expressing KRAS(G12D) (Precedo, Hefei, China). Cell lines were cultured according to ATCC and recommendations. BA/F3-KRAS(G12D) cells were cultured in RPMI 1640 media with 10% fetal calf serum, 100 units/mL penicillin and […] streptomycin, and 1% glutamine.
CellTiter-Glo® Reagent Cancer Cell Line Proliferation Assays
Cells were plated in 96-well tissue culture plates at 4,000 cells/well and incubated at 37° C./5% CO2 for 24 hr in 100 μl of media. 3-fold serial dilutions of each test compound were prepared ranging from 20 μM to 1.02 nM. Cells were then treated with test compounds at various concentrations with a final concentration of 0.5% DMSO/well, and then incubated at 37° C./5% CO2 for 24 hr. 100 μl of CellTiter-Glo® Reagent (Promega Corporation, Madison, WI) was added to each well and processed according manufacturer's protocol. Results were analyzed and IC50-values were calculated in GraphPad 7 software.

Chain of BA/F3-KRAS(G12D) murine pro-B cell line stably expressing KRAS(G12D) (P01116 whole entry G12D): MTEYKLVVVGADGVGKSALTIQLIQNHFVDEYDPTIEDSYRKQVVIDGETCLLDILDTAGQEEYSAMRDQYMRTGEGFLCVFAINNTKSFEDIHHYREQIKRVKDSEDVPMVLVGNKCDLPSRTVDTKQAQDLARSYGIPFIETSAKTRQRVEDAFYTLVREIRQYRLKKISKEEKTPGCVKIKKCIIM
T1 sequence (P01116 1-188 isoform P01116-2 G12D): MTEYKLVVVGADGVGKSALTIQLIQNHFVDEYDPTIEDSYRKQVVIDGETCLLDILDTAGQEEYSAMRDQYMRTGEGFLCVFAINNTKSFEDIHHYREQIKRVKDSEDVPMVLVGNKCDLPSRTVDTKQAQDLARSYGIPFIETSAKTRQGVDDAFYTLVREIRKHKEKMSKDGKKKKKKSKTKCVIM

Row | Structure (SMILES) | IC50 [1] | IC50 [2] | IC50 [3] | GI50 [4]
1 | C#Cc1cccc2cccc(-c3ncc4c(N5CC6CCC(C5)N6)nc(OCCN5CCN(Cc6ccc7c(c6)C(=O)N(C6CCC(=O)NC6=O)C7=O)CC5)nc4c3F)c12 (centres unmarked) [Compound 2, 5-((4-(2-((4-(3,8-diazabicyclo[3.2.1]octan-3-yl)-7-(8-ethynylnaphthalen-1-yl)-8-fluoropyrido[4,3-d]pyrimidin-2-yl)oxy)ethyl)piperazin-1-yl)methyl)-2-(2,6-dioxopiperidin-3-yl)isoindoline-1,3-dione hydrochloride] | > 1000 nM | > 1000 nM | < 100 nM | > 1000 nM
2 | C#Cc1cccc2cccc(-c3ncc4c(N5CC6CCC(C5)N6)nc(OC[C@@H]5C[C@H](N6CCN(CC7CCN(c8ccc9c(c8)C(=O)N(C8CCC(=O)NC8=O)C9=O)CC7)CC6)CN5C)nc4c3F)c12 (stereo partly drawn) [Compound 5, 5-(4-((4-((3S,5S)-5-(((4-(3,8-diazabicyclo[3.2.1]octan-3-yl)-7-(8-ethynylnaphthalen-1-yl)-8-fluoropyrido[4,3-d]pyrimidin-2-yl)oxy)methyl)-1-methylpyrrolidin-3-yl)piperazin-1-yl)methyl)piperidin-1-yl)-2-(2,6-dioxopiperidin-3-yl)isoindoline-1,3-dione hydrochloride] | > 1000 nM | > 1000 nM | < 100 nM | 100 to 1000 nM
3 | C#Cc1cccc2cccc(-c3ncc4c(N5CC6CCC(C5)N6)nc(OC[C@@H]5C[C@H](N6CCN(CC7CCN(c8cccc9c8C(=O)N(C8CCC(=O)NC8=O)C9=O)CC7)CC6)CN5C)nc4c3F)c12 (stereo partly drawn) [Compound 6, 4-(4-((4-((3S,5S)-5-(((4-(3,8-diazabicyclo[3.2.1]octan-3-yl)-7-(8-ethynylnaphthalen-1-yl)-8-fluoropyrido[4,3-d]pyrimidin-2-yl)oxy)methyl)-1-methylpyrrolidin-3-yl)piperazin-1-yl)methyl)piperidin-1-yl)-2-(2,6-dioxopiperidin-3-yl)isoindoline-1,3-dione hydrochloride] | > 1000 nM | > 1000 nM | < 100 nM | > 1000 nM
4 | C#Cc1cccc2cccc(-c3ncc4c(N5CC6CCC(C5)N6)nc(OC[C@@H]5C[C@H](N6CCN(Cc7ccc8c(c7)C(=O)N(C7CCC(=O)NC7=O)C8=O)CC6)CN5C)nc4c3F)c12 (stereo partly drawn) [Compound 7, 5-((4-((3S,5S)-5-(((4-(3,8-diazabicyclo[3.2.1]octan-3-yl)-7-(8-ethynylnaphthalen-1-yl)-8-fluoropyrido[4,3-d]pyrimidin-2-yl)oxy)methyl)-1-methylpyrrolidin-3-yl)piperazin-1-yl)methyl)-2-(2,6-dioxopiperidin-3-yl)isoindoline-1,3-dione formate] | > 1000 nM | > 1000 nM | < 100 nM | > 1000 nM
5 | C#Cc1cccc2cccc(-c3ncc4c(N5CC6CCC(C5)N6)nc(OC[C@@H]5C[C@H](N6CCN(C(=O)C7CCN(c8ccc9c(c8)C(=O)N(C8CCC(=O)NC8=O)C9=O)CC7)CC6)CN5C)nc4c3F)c12 (stereo partly drawn) [Compound 8, 5-(4-(4-((3S,5S)-5-(((4-(3,8-diazabicyclo[3.2.1]octan-3-yl)-7-(8-ethynylnaphthalen-1-yl)-8-fluoropyrido[4,3-d]pyrimidin-2-yl)oxy)methyl)-1-methylpyrrolidin-3-yl)piperazine-1-carbonyl)piperidin-1-yl)-2-(2,6-dioxopiperidin-3-yl)isoindoline-1,3-dione hydrochloride] | > 1000 nM | > 1000 nM | < 100 nM | > 1000 nM
6 | CN1C[C@@H](N2CCC(C(=O)N3CCN(c4ccc5c(c4)C(=O)N(C4CCC(=O)NC4=O)C5=O)CC3)CC2)C[C@H]1COc1nc(N2CC3CCC(C2)N3)c2cnc(-c3cccc4cccc(Cl)c34)c(F)c2n1 (stereo partly drawn) [Compound 9, 5-(4-(1-((3S,5S)-5-(((4-(3,8-diazabicyclo[3.2.1]octan-3-yl)-7-(8-chloronaphthalen-1-yl)-8-fluoropyrido[4,3-d]pyrimidin-2-yl)oxy)methyl)-1-methylpyrrolidin-3-yl)piperidine-4-carbonyl)piperazin-1-yl)-2-(2,6-dioxopiperidin-3-yl)isoindoline-1,3-dione hydrochloride] | > 1000 nM | > 1000 nM | < 100 nM | > 1000 nM
7 | CN1C[C@@H](N2CCC(C(=O)Nc3ccc4c(c3)C(=O)N(C3CCC(=O)NC3=O)C4=O)CC2)C[C@H]1COc1nc(N2CC3CCC(C2)N3)c2cnc(-c3cccc4cccc(Cl)c34)c(F)c2n1 (stereo partly drawn) [Compound 10, 1-((3S,5S)-5-(((4-(3,8-diazabicyclo[3.2.1]octan-3-yl)-7-(8-chloronaphthalen-1-yl)-8-fluoropyrido[4,3-d]pyrimidin-2-yl)oxy)methyl)-1-methylpyrrolidin-3-yl)-N-(2-(2,6-dioxopiperidin-3-yl)-1,3-dioxoisoindolin-5-yl)piperidine-4-carboxamide formate] | > 1000 nM | > 1000 nM | < 100 nM | > 1000 nM
8 | CN1C[C@@H](N2CCC(C(=O)NCCOCCOc3ccc4c(c3)C(=O)N(C3CCC(=O)NC3=O)C4=O)CC2)C[C@H]1COc1nc(N2CC3CCC(C2)N3)c2cnc(-c3cccc4cccc(Cl)c34)c(F)c2n1 (stereo partly drawn) [Compound 11, 1-((3S,5S)-5-(((4-(3,8-diazabicyclo[3.2.1]octan-3-yl)-7-(8-chloronaphthalen-1-yl)-8-fluoropyrido[4,3-d]pyrimidin-2-yl)oxy)methyl)-1-methylpyrrolidin-3-yl)-N-(2-(2-((2-(2,6-dioxopiperidin-3-yl)-1,3-dioxoisoindolin-5-yl)oxy)ethoxy)ethyl)piperidine-4-carboxamide formate] | > 1000 nM | > 1000 nM | 100 to 1000 nM | > 1000 nM
9 | CN1C[C@@H](N2CCC(C(=O)NCCOc3ccc4c(c3)C(=O)N(C3CCC(=O)NC3=O)C4=O)CC2)C[C@H]1COc1nc(N2CC3CCC(C2)N3)c2cnc(-c3cccc4cccc(Cl)c34)c(F)c2n1 (stereo partly drawn) [Compound 12, 1-((3S,5S)-5-(((4-(3,8-diazabicyclo[3.2.1]octan-3-yl)-7-(8-chloronaphthalen-1-yl)-8-fluoropyrido[4,3-d]pyrimidin-2-yl)oxy)methyl)-1-methylpyrrolidin-3-yl)-N-(2-((2-(2,6-dioxopiperidin-3-yl)-1,3-dioxoisoindolin-5-yl)oxy)ethyl)piperidine-4-carboxamide hydrochloride] | > 1000 nM | > 1000 nM | 100 to 1000 nM | > 1000 nM
10 | C#Cc1cccc2cccc(-c3ncc4c(N5CC6CCC(C5)N6)nc(OC[C@@H]5CC[C@H](CN6CCN(CC7CCN(c8ccc9c(c8)C(=O)N(C8CCC(=O)NC8=O)C9=O)CC7)CC6)N5C)nc4c3F)c12 (stereo partly drawn) [Compound 13, 5-(4-((4-(((2R,5S)-5-(((4-(3,8-diazabicyclo[3.2.1]octan-3-yl)-7-(8-ethynylnaphthalen-1-yl)-8-fluoropyrido[4,3-d]pyrimidin-2-yl)oxy)methyl)-1-methylpyrrolidin-2-yl)methyl)piperazin-1-yl)methyl)piperidin-1-yl)-2-(2,6-dioxopiperidin-3-yl)isoindoline-1,3-dione hydrochloride] | > 1000 nM | > 1000 nM | < 100 nM | 100 to 1000 nM
11 | C#Cc1cccc2cccc(-c3ncc4c(N5CC6CCC(C5)N6)nc(OC[C@@H]5CC[C@H](CN6CCN(CC7CCN(c8cccc9c8C(=O)N(C8CCC(=O)NC8=O)C9=O)CC7)CC6)N5C)nc4c3F)c12 (stereo partly drawn) [Compound 14, 4-(4-((4-(((2R,5S)-5-(((4-(3,8-diazabicyclo[3.2.1]octan-3-yl)-7-(8-ethynylnaphthalen-1-yl)-8-fluoropyrido[4,3-d]pyrimidin-2-yl)oxy)methyl)-1-methylpyrrolidin-2-yl)methyl)piperazin-1-yl)methyl)piperidin-1-yl)-2-(2,6-dioxopiperidin-3-yl)isoindoline-1,3-dione] | > 1000 nM | 100 to 1000 nM | < 100 nM | 100 to 1000 nM
12 | C#Cc1cccc2cccc(-c3ncc4c(N5CC6CCC(C5)N6)nc(OC[C@@H]5CC[C@H](CN6CCN(C(=O)C7CCN(c8ccc9c(c8)C(=O)N(C8CCC(=O)NC8=O)C9=O)CC7)CC6)N5C)nc4c3F)c12 (stereo partly drawn) [Compound 16, 5-(4-(4-(((2R,5S)-5-(((4-(3,8-diazabicyclo[3.2.1]octan-3-yl)-7-(8-ethynylnaphthalen-1-yl)-8-fluoropyrido[4,3-d]pyrimidin-2-yl)oxy)methyl)-1-methylpyrrolidin-2-yl)methyl)piperazine-1-carbonyl)piperidin-1-yl)-2-(2,6-dioxopiperidin-3-yl)isoindoline-1,3-dione hydrochloride] | > 1000 nM |  | < 100 nM | > 1000 nM

— US20250018047A1, “METHODS AND COMPOSITIONS FOR TARGETED PROTEIN DEGRADATION” (Ranok Therapeutics (Hangzhou) Co. Ltd., priority 2021, published 2025)
